From ChEMBL document CHEMBL1151045, “Synthesis and evaluation of the anticonvulsant activity of a series of 2-amino-1-phenyl-1-propanols derived from the metabolites of the antidepressant bupropion” (1997) come the findings set out here.

The structures appear in SMILES notation. Where “and” joins values, the source holds several entries; their conditions need not be identical. Equal values may be shown once. Calls of active or inactive are those of the source. No cut-off for these calls is given here.

The test system of the first test is Mus musculus. As to the kind of experiment: Anticonvulsant activity of compound was tested in mice after intraperitoneal administration in Maximal electroshock assay (MES); Inactive at 70 mg/kg dose. More on the design: dose 70 mg/kg.
Settings: not given
The class given is functional, organism-based. (In general: In the maximal electroshock model the usual endpoint is tonic extension of the hind limbs.)
As for `COc1ccc([C@@H](O)[C@H](C)NC(C)(C)C)cc1`, the ED50 (as a rule, the midpoint of the dose-response relation) was “inactive”.

A further test concerns Mus musculus. The test is described as follows: Anticonvulsant activity of compound was tested in mice after intraperitoneal administration in Maximal electroshock assay (MES); Inactive at 60 mg/kg dose. The class given is functional, organism-based. More on the design: dose 60 mg/kg.
Settings: not given
With `C[C@H](N)[C@H](O)c1cccc(Cl)c1`, the ED50 result was “inactive”.

For another test, the system named is Mus musculus. As to the kind of experiment: Anticonvulsant activity measured in Maximal electroshock assay (MES), intraperitoneal administration. The class given is functional.
Settings: not given
`C[C@H](NC(C)(C)C)[C@H](O)c1cccc(Cl)c1` [ERYTHRO-HYDROBUPROPION] displayed an ED50 of 28 mg/kg.
On the same count and under the same terms, with `C[C@@H](NC(C)(C)C)[C@H](O)c1cccc(C(F)(F)F)c1` the figure was 17 mg/kg and 22 mg/kg; with `CC(NC(C)(C)C)C(O)c1cccc(Cl)c1` (racemic; form 1) [ERYTHRO-HYDROBUPROPION], 14 mg/kg; with `C[C@@H](NC(C)(C)C)[C@H](O)c1cccc(Cl)c1` [ERYTHRO-HYDROBUPROPION], 11 mg/kg.
Same read-out and setting: with `CC(NC(C)(C)C)[C@H](O)c1ccccc1` (single isomer, unassigned) the figure was 25 mg/kg; with `CC(NC(C)(C)C)C(O)c1cccc(Cl)c1` (racemic; form 2) [ERYTHRO-HYDROBUPROPION], 26 mg/kg.
`CC(NC(C)(C)C)C(O)c1cccc(C(F)(F)F)c1` (racemic; form 1) registered an ED50 of 16 mg/kg.

The same test, now with this note: Mus musculus, ip; read-out: ED50.
For `CC(C)(C)NCC(O)c1cccc(Cl)c1` (centres undefined), the ED50 is 28 mg/kg.
Still for that read-out and setting: with `CC(C)N[C@@H](C)[C@H](O)c1cccc(Cl)c1` the figure was 20 mg/kg; with `C[C@@H](NC(C)(C)C)[C@H](O)c1cccc(Br)c1`, 11 mg/kg; with `CC(C)N[C@H](C)[C@H](O)c1cccc(C(F)(F)F)c1`, 40 mg/kg.
Still for that read-out and setting: the same measure for `O=C1NC(=O)C(c2ccccc2)(c2ccccc2)N1` [PHENYTOIN]: 8.5 mg/kg; for `CCC[C@H](NC(C)(C)C)[C@H](O)c1cccc(C(F)(F)F)c1`: 31 mg/kg; for `CC[C@H](NC(C)(C)C)[C@H](O)c1cccc(C(F)(F)F)c1`: 40 mg/kg.
With `CCC(C)(C)N[C@H](C)[C@H](O)c1cccc(Cl)c1`, the ED50 was determined as 11 mg/kg.
Still for that read-out and setting: the same measure for `C[C@@H](NC1CCCCC1)[C@H](O)c1cccc(Cl)c1`: 13 mg/kg; for `C[C@H](NC(C)(C)C)[C@H](O)c1cccc(Br)c1`: 16 mg/kg.
On the same count and under the same terms, the same measure for `C[C@@H](NC(C)(C)C)[C@H](O)c1ccc(Cl)cc1`: 29 mg/kg; for `CCC(C)(C)N[C@@H](C)[C@H](O)c1cccc(Cl)c1`: 23 mg/kg; for `CC[C@@H](NC(C)(C)C)[C@H](O)c1cccc(Cl)c1`: 15 mg/kg.
On to `C[C@H](NC(C)(C)C)[C@H](O)c1ccc(Cl)c(Cl)c1`, for which the ED50 turned out to be 31 mg/kg.
`CCC[C@H](NC(C)(C)C)[C@H](O)c1cccc(Cl)c1`: the ED50 was found to be 31 mg/kg.
On the same count and under the same terms, with `CC[C@H](NC(C)(C)C)[C@H](O)c1cccc(Cl)c1` the figure was 26 mg/kg.
As for `CCC(C)(C)N[C@@H](C)[C@H](O)c1cccc(C(F)(F)F)c1`, the 50% effective dose (ED50) came out at 28 mg/kg.
On the same count and under the same terms, with `CCC(C)(C)N[C@H](C)[C@H](O)c1cccc(C(F)(F)F)c1` the figure was 18 mg/kg; with `CCC(C)N[C@H](C)[C@H](O)c1cccc(C(F)(F)F)c1` (some centres undefined), 31 mg/kg.
On the same count and under the same terms, the same measure for `C[C@@H](NC(C)(C)C)[C@H](O)c1ccccc1`: 14 mg/kg; for `Cc1ccc([C@@H](O)[C@@H](C)NC(C)(C)C)cc1`: 33 mg/kg.
The same measure, in the same setting: with `CC[C@@H](NC(C)(C)C)[C@H](O)c1cccc(C(F)(F)F)c1` the figure was 31 mg/kg.
For the compound `C[C@@H](NC(C)(C)C)[C@H](O)c1ccc(Cl)c(Cl)c1`, the ED50 is 13 mg/kg.
Same read-out and setting: with `CC(NC(C)(C)C)C(O)c1cccc(C(F)(F)F)c1` (racemic; form 2) the figure was 25 mg/kg; with `C[C@H](NC(C)(C)C)[C@H](O)c1ccc(Cl)cc1`, 25 mg/kg.

The next test concerns Mus musculus. As to the kind of experiment: Anticonvulsant activity of compound was tested in mice after intraperitoneal administration in Maximal electroshock assay (MES); Inactive at 40 mg/kg dose.
Settings: not given
In kind it is functional, organism-based. More on the design: dose 40 mg/kg.
As for `C[C@H](NC(C)(C)C)[C@H](O)c1cccc([N+](=O)[O-])c1`, the ED50 entry was “inactive”.
Same read-out and setting: the same measure for `C[C@@H](NC(C)(C)C)[C@H](O)c1cccc([N+](=O)[O-])c1`: “inactive”; for `Cc1ccc([C@@H](O)[C@H](C)NC(C)(C)C)cc1`: “inactive”.

The subject of a further test is Mus musculus. The test is described as follows: Anticonvulsant activity of compound was tested in mice after intraperitoneal administration in Maximal electroshock assay (MES); Inactive at 13 mg/kg dose. The class given is functional, organism-based. More on the design: dose 13 mg/kg.
Settings: not given
Take `CCCCN[C@H](C)[C@H](O)c1cccc(C(F)(F)F)c1`: the ED50 entry was “inactive”.

Another test has as its system Mus musculus. As to the kind of experiment: Anticonvulsant activity of compound was tested in mice after intraperitoneal administration in Maximal electroshock assay (MES); Inactive at 30 mg/kg dose. In kind it is functional, organism-based.
Settings: not given
More on the design: dose 30 mg/kg.
For `C[C@H](NC(C)(C)CO)[C@H](O)c1cccc(Cl)c1`, the ED50 result is “inactive”.
